Consider 8 compounds from ChEMBL document CHEMBL5465560, “Selectivity Literature for EUbOPEN Chemogenomic Library” (2024).

Experiment [1] addresses Mitogen-activated protein kinase kinase kinase 20 (Homo sapiens) (UniProt Q9NYL2). Briefly: Selectivity interaction (ProQinase) EUB0000171b MAP3K20.
Experiment [2] has as its target T1, Serine/threonine-protein kinase ULK1 (Homo sapiens) (UniProt O75385).
T1 sequence (whole entry): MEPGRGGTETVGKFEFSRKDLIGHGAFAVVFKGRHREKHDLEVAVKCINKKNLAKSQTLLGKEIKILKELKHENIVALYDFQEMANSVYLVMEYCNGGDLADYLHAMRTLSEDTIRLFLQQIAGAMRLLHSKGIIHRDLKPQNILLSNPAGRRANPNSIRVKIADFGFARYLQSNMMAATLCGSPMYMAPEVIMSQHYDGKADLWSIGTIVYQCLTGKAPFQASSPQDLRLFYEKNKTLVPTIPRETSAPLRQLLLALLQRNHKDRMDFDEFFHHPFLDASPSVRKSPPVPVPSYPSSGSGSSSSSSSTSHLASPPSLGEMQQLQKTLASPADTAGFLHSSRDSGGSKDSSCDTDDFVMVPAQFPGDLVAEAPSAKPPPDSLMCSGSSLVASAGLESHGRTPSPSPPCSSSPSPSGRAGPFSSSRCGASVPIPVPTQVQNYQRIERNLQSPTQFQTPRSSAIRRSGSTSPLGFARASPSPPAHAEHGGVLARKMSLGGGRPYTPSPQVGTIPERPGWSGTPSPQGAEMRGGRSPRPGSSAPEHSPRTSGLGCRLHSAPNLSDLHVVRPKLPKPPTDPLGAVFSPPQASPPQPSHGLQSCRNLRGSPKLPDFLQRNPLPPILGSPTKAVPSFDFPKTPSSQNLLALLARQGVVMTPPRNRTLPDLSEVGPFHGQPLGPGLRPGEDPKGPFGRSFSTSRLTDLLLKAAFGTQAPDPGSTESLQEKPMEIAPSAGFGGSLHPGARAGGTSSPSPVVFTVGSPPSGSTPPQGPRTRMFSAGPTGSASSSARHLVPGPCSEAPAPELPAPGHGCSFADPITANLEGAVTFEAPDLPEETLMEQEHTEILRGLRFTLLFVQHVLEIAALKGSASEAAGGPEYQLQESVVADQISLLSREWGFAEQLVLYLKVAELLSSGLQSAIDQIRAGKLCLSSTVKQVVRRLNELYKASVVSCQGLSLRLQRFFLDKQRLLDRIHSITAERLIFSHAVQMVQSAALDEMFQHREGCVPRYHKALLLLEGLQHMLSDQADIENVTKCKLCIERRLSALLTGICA
The experiment in a line: Selectivity interaction (Ambit KINOMEscan and KiNATiv profiling in Jurkat cells) EUB0000090b ULK1. It counts as cell-based. The conditions noted are these: at 1 µM.

Experiment [3] deals with T2, Fibroblast growth factor receptor 1 (Homo sapiens, UniProt P11362). As to conditions: at 10 µM.
T2 sequence (P11362 22-822 limits assumed): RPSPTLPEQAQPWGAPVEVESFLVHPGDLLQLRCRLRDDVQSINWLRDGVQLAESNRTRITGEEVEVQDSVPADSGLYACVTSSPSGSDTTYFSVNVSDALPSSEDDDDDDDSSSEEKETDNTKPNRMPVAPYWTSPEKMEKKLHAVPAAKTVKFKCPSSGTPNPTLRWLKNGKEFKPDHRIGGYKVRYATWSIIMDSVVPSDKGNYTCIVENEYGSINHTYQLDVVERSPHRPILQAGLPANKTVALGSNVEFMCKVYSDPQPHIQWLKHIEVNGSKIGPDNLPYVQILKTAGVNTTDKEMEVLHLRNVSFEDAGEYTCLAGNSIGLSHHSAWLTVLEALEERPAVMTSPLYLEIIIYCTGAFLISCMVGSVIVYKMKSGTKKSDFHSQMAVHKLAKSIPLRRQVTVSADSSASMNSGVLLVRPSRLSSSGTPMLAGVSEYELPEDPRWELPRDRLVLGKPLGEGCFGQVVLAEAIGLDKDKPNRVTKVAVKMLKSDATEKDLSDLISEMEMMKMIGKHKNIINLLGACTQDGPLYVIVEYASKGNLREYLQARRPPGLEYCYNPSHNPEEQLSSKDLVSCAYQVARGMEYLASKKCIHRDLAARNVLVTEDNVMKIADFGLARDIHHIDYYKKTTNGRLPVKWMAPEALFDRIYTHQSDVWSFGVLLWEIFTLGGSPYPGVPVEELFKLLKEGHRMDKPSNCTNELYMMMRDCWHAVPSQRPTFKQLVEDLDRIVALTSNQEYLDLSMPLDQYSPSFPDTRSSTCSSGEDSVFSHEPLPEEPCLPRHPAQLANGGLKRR
In experiment [4] the target is Glycogen synthase kinase-3 beta (Homo sapiens, UniProt P49841). Briefly: Selectivity interaction (KinomeScan (DiscoverX)) EUB0001049a GSK3B. The conditions noted are these: at 1 µM.
Sequence of Glycogen synthase kinase-3 beta (P49841 whole entry, looked up): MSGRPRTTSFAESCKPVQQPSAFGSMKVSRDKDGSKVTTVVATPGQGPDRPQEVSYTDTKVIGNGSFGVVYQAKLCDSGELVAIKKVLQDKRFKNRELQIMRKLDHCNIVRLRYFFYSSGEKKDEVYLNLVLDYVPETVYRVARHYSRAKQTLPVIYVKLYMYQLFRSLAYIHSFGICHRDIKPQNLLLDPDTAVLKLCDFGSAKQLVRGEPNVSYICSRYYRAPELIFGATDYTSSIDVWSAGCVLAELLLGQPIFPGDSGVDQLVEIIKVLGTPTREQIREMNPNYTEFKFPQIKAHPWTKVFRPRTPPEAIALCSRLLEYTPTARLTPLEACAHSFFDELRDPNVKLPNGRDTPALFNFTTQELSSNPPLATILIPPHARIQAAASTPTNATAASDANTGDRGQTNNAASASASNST
Experiment [5] addresses Histone-lysine N-methyltransferase NSD3 (Homo sapiens, UniProt Q9BZ95). The experiment in a line: Selectivity interaction (Binding affinity assay (SPR measurement)) EUB0000270b NSD3.
Experiment [6] addresses T3, Mitogen-activated protein kinase kinase kinase 3 (Homo sapiens) (UniProt Q99759).
T3 sequence (whole entry): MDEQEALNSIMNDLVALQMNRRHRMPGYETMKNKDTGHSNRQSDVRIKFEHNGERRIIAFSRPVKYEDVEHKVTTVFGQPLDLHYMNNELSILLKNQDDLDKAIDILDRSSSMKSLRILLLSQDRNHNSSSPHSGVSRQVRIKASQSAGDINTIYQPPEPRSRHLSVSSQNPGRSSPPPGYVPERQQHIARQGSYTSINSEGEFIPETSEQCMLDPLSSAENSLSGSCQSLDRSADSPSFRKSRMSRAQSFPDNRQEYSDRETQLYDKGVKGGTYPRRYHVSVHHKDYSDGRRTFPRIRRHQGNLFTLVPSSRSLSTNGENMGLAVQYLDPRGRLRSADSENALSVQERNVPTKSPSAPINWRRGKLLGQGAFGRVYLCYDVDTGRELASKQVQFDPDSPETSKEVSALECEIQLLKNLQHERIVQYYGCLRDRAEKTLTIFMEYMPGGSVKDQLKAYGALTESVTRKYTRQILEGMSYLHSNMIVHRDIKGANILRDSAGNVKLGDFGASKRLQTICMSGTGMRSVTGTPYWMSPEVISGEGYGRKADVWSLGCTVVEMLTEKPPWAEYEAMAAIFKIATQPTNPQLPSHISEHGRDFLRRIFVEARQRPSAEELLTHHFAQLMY
The experiment in a line: Selectivity interaction (KinomeScan (DiscoverX)) EUB0000666a MAP3K3. As to conditions: at 10 µM.

Experiment [7] has as its target T4, Mitogen-activated protein kinase 13 (Homo sapiens) (UniProt O15264).
T4 sequence (whole entry): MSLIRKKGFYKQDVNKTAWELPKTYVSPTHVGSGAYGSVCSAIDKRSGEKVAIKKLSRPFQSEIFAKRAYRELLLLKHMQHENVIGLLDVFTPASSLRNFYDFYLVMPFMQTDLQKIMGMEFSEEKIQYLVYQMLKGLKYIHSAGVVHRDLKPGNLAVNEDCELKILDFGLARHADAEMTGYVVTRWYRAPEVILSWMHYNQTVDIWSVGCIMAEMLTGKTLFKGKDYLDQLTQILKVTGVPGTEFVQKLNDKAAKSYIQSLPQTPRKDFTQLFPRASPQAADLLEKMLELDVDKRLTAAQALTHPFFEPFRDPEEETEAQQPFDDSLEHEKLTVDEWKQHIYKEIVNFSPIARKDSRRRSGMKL
The experiment in a line: Selectivity interaction (KinomeScan (DiscoverX)) EUB0000607a MAPK13. As to conditions: at 10 µM.

For experiment [8], the target named is T2, Fibroblast growth factor receptor 1. The experiment in a line: Selectivity interaction (KinomeScan (DiscoverX)) EUB0000595a FGFR1. As to conditions: at 10 µM.
The target of experiment [9] is Serine/threonine-protein kinase 25 (Homo sapiens) (UniProt O00506). Briefly: Selectivity interaction (KinomeScan (DiscoverX)) EUB0000595a STK25. The conditions noted are these: at 10 µM.
Sequence of Serine/threonine-protein kinase 25 (Homo sapiens) (O00506 whole entry, looked up): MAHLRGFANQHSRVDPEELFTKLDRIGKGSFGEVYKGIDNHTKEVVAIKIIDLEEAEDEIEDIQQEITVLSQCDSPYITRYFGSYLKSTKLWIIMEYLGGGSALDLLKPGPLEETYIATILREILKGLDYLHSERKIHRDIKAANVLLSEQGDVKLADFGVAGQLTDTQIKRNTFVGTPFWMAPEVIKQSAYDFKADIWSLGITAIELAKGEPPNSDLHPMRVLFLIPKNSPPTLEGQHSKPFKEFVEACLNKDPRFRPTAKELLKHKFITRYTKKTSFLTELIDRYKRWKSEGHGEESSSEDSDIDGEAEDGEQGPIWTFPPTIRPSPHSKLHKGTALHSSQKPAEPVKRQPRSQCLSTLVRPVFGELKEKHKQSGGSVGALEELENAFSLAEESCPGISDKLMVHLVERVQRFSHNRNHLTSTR
The target of experiment [10] is Platelet-derived growth factor receptor alpha (Homo sapiens, UniProt P16234). The experiment in a line: Selectivity interaction (KinomeScan (DiscoverX)) EUB0000595a PDGFRA. As to conditions: at 10 µM.
Sequence of Platelet-derived growth factor receptor alpha (P16234 whole entry): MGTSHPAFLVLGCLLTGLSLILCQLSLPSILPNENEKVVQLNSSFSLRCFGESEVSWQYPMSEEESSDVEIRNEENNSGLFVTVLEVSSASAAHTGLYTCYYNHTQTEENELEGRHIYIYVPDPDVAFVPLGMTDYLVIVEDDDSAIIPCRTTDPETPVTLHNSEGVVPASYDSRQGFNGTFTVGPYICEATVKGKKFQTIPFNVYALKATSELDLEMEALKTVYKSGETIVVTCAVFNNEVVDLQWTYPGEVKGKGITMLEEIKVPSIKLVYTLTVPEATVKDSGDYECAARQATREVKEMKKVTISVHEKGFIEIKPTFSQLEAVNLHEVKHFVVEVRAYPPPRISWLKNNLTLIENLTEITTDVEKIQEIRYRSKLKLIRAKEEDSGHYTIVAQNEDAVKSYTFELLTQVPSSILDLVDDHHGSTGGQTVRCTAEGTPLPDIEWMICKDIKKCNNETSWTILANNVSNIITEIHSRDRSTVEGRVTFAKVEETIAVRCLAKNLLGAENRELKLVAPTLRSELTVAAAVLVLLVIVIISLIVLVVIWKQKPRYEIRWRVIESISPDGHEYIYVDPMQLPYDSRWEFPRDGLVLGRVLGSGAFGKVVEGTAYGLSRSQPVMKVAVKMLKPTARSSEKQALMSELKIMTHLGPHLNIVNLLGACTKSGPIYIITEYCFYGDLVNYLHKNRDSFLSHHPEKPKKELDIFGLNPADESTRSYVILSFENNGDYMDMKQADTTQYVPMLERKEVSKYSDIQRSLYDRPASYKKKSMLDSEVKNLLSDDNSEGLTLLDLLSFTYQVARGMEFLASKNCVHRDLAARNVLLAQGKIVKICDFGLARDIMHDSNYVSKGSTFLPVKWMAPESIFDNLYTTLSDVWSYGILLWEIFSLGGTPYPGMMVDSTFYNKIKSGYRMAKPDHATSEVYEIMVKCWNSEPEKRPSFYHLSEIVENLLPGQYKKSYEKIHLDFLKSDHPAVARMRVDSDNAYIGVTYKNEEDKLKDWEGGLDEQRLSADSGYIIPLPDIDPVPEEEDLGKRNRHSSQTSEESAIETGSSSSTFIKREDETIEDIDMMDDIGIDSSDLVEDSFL

Sequence of Mitogen-activated protein kinase kinase kinase 20 (Homo sapiens) (Q9NYL2 2-800 limits assumed): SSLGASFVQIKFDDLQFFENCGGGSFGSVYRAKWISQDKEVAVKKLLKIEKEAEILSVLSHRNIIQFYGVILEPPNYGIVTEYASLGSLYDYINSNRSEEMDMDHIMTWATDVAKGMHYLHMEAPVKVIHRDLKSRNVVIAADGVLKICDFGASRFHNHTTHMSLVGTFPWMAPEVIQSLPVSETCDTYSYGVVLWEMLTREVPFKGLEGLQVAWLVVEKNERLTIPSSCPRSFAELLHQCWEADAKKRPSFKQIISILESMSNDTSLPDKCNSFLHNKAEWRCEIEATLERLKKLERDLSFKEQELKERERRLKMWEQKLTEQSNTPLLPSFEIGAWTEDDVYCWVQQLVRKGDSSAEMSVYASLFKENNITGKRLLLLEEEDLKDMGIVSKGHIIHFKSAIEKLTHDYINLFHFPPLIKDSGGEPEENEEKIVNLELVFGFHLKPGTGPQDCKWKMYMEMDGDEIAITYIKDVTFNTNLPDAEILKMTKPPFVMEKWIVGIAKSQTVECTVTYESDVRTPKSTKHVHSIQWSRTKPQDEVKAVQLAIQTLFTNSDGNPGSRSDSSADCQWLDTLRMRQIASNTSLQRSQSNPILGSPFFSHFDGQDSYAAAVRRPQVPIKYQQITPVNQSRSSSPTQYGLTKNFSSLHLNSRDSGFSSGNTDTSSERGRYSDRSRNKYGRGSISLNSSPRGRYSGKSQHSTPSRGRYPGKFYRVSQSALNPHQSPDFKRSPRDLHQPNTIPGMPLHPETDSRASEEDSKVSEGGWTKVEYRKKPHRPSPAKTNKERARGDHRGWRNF
Sequence of Histone-lysine N-methyltransferase NSD3 (Q9BZ95 whole entry): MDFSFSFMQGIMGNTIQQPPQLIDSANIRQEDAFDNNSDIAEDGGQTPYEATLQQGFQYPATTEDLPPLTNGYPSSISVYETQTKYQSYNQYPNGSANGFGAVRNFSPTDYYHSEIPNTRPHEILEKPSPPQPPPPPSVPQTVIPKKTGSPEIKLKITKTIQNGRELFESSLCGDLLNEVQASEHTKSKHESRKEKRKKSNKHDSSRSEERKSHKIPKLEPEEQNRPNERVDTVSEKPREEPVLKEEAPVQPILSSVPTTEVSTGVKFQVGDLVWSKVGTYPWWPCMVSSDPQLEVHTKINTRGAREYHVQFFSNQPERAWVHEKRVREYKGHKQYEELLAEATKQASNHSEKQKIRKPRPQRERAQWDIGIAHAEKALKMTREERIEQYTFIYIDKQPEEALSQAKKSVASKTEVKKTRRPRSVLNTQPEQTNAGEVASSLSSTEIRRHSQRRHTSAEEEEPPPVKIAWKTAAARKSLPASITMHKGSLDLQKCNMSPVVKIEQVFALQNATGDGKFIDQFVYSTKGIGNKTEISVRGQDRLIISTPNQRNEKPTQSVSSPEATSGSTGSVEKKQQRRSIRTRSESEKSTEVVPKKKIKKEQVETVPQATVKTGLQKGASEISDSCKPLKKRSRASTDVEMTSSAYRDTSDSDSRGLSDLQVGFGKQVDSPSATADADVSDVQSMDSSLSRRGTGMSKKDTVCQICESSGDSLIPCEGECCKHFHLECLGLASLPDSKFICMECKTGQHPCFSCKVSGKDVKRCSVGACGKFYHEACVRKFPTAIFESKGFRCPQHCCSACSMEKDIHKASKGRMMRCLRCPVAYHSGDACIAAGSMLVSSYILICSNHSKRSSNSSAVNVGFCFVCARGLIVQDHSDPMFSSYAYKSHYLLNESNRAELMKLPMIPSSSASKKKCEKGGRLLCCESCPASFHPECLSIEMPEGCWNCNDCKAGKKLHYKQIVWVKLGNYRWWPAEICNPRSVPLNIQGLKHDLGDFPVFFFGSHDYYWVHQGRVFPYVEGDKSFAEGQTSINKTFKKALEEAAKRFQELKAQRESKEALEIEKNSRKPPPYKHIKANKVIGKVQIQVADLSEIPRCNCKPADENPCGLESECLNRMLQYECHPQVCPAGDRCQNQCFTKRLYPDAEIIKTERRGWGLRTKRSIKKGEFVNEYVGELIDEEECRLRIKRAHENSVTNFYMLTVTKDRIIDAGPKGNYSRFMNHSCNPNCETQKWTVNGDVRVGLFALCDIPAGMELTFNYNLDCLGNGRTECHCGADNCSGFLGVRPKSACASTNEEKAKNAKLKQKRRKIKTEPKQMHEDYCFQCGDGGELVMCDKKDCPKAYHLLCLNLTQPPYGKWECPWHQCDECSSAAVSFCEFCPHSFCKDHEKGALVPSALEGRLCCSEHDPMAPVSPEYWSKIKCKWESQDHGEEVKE

As for `C=CC(=O)Nc1cccc(C(=O)Nc2ccc(Nc3cc(-c4[nH]c(SC)nc4C)ccn3)cc2)c1`, the % of control in experiment [1] (at 1 µM) amounted to 48%; in [1] (at 5 µM), 15%.
The compound `CN(C)C/C=C/C(=O)Nc1ccc(C(=O)N2CCCC(Nc3ncc(Cl)c(-c4c[nH]c5ccccc45)n3)C2)cc1` (stereo unspecified) came in with a % of control in experiment [2] of 88%.
Compound `CCN(CC)CCCCNc1ncc2cc(-c3cc(OC)cc(OC)c3)c(NC(=O)NC(C)(C)C)nc2n1` had a % of control in experiment [3] of 0.4%.
In experiment [4], `COc1cc(Nc2nc(C)cc(-c3cnn4nc(OC)ccc34)n2)cc(C(F)(F)F)c1` displayed a % of control of 100%.
`Cc1cc(CN)cc(C)c1-c1ncn(C)c1-c1cncn1C` gave a dissociation constant Kd in experiment [5] of 144 µM.
In experiment [6], `O=C(NOC[C@H](O)CO)c1ccc(F)c(F)c1Nc1ccc(I)cc1F` showed a % of control of 98%.
The compound `CNC(=O)Nc1ccc(-c2nc(N3CC4CCC(C3)O4)c3cnn(C4CCC5(CC4)OCCO5)c3n2)cc1` registered a % of control in [7] of 16%.
With `COCC(=O)NC/C=C/c1ccc2ncnc(Nc3ccc(Oc4ccc(C)nc4)c(C)c3)c2c1` [CP-724714], the figures for the % of control in [8], in [9] and in experiment [10] were 100%, 94% and 56%, respectively.

In general, Kd refers to the constant that tells how readily two partners part at equilibrium. Read a low Kd as tighter binding.
